In patent US5001128A, “HMG-COA reductase inhibitors” (Rhone-Poulenc Rorer Pharmaceuticals Inc., priority 1989, dated 1991):

What was measured:
HMG-CoA reductase = assay: HMGR Screen (inhibition of solubilized rat liver HMG-CoA reductase, [14C] HMG-CoA); type: biochemical; details: solubilized rat liver microsomal enzyme; 20 μM HMG-CoA; 37° C.; pH 7.0; read-out: IC50 (Micromoles per liter), HMGR Screen
Method: The first method used (designated HMGR Screen) was as follows. Male rats were acclimated to an alternate 12 hour light-dark cycle for a period of 2-3 weeks. The animals, weighing 180-230 g, were fed ad libitum a rat chow containing 2% cholestyramine for 5 days prior to sacrifice at the mid-dark period. Liver microsomes were prepared and HMGR enzyme was solubilized from the microsomes by freeze-thaw manipulation in high ionic strength buffer. The enzyme preparation was stored at -80° C. in 300 μl portion samples. Prior to use, the enzyme was activated at 37° C. for 30 minutes in a reaction mixture. The reaction mixture contained in a volume of 240 μl:0.14M potassium phosphate buffer (pH 7.0); 0.18M KCl; 3.5 mM EDTA; 10 mM dithiothreitol; 0.1 mg/ml BSA; 30,000 cpm of [^14 C] HMG-CoA; 20 μM HMG-CoA, and 200 μg of solubilized enzyme with and without inhibitors (in 10 μDMSO). After 5 minutes incubation at 37° C. the reaction was initiated with 0.2 mM NADPH. The final assay volume was 300 μl. The reaction then was terminated with 100 μl of 1N HCl. After an additional incubation for 15 minutes at 37° C. to allow for complete lactonization of the product, the mixture was diluted with 3 ml GDW. […] After the addition of 10 ml of Aquasol , radioactivities of the samples were measured in a scintillation counter.

[1] = tested on: cholesterol synthesis in rat liver; assay: Ex-Vivo Fasted (cholesterol synthesis from [14C] sodium acetate in liver slices of orally dosed fasted rats); details: 1 mg/kg oral in 0.5% methocel, rats fasted 16 hours, livers removed after one hour
Method: The second method (designated Ex-Vivo Fasted) used was as follows. Rats of 170-210 g were maintained on a low cholesterol diet for one week prior to use. Drugs (identified in Table I) were given orally in 0.5% methocel to fasted (fasted for 16 hours) rats. After one hour the rats were decapitated and their livers removed and transferred to chilled oxygenated Kreb's-Ringer-bicarbonate buffer (pH 7.4). The livers were then chopped into 0.5 mm slices using a McIlwain tissue chopper, and were suspended in the same buffer. Aliquots of the suspension containing 100 mg tissue were pipetted to culture tubes which contained [^14 C] sodium acetate (2μ Ci, 1 mM). The tubes were gassed with 95% O2 /5 % CO2, capped and incubated at 37° C. in a shaking water bath at 150 oscillation/min. for two hours. The final assay volume was 1.0 ml. After incubation the reaction was stopped by the addition of 1.0 ml of 15% KOH in ethanol, and the internal standard ^3 H-cholesterol was added. The tubes were recapped and the samples were saponified at 75° C. for two hours with periodic mixing. Subsequently an aliquot was removed for protein analysis using Bio-Rad's standard kit, and the remainder of the saponified samples was extracted with 10 ml of petroleum ether for 30 minutes. […] After visualization with iodine the cholesterol spots were cut and counted with liquid scintillation fluid.

Row | Structure (SMILES) | IC50 (HMG-CoA reductase) [µM] | inhibition at 1 mg/kg [1] [%]
1 | O=C1C[C@@H](O)C[C@H](/C=C/C2=C(c3ccc(F)cc3)C=C(c3ccccc3)C23CCCC3)O1 (relative stereo) [Compound of Example I Step 9, Trans-(E)-6-[2-[2-(4-fluorophenyl)-4-phenyl-spiro[4,4]-nona-1,3-dien-1-yl]ethenyl]-3,4,5,6-tetrahydro-4-hydroxy-2H-pyran-2-one] | 0.0009 | 
2 | O=C(O)C[C@H](O)C[C@H](O)/C=C/C1=C(c2ccc(F)cc2)C=C(c2ccccc2)C12CCCC2 (relative stereo) |  | 65 ± 4
3 | O=C1C[C@@H](O)C[C@H](/C=C/C2=C(c3ccc(F)cc3)C=C(c3ccccc3)C23CCCC3)O1 (relative stereo) [Lactone Form of Compound of Example I Step 9] [Trans-(E)-6-[2-[2-(4-fluorophenyl)-4-phenyl-spiro[4,4]-nona-1,3-dien-1-yl]ethenyl]-3,4,5,6-tetrahydro-4-hydroxy-2H-pyran-2-one] | 0.07 | 
